This is an account of results in ChEMBL document CHEMBL5380866, “Discovery of Selective P2Y6R Antagonists with High Affinity and In Vivo Efficacy for Inflammatory Disease Therapy” (J Med Chem, 2023).

As a reminder, the IC50 is the concentration that inhibits the measured activity by half.

Molecules are shown by their SMILES. Active and inactive are the calls of the source. No cut-off for these calls is given here.

T2 sequence (Q15077 whole entry): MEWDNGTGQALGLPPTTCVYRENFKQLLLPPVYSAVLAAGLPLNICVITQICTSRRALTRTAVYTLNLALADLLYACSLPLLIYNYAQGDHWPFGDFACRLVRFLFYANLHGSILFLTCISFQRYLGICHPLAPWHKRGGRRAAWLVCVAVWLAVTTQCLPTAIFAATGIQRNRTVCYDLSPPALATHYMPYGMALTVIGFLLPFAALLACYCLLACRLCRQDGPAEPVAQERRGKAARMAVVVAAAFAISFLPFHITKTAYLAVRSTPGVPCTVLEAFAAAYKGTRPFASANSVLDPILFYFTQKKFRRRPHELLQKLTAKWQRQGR

For the first test, the target named is T1, P2Y purinoceptor 14 (Homo sapiens, UniProt Q15391).
T1 sequence (Q15391 whole entry): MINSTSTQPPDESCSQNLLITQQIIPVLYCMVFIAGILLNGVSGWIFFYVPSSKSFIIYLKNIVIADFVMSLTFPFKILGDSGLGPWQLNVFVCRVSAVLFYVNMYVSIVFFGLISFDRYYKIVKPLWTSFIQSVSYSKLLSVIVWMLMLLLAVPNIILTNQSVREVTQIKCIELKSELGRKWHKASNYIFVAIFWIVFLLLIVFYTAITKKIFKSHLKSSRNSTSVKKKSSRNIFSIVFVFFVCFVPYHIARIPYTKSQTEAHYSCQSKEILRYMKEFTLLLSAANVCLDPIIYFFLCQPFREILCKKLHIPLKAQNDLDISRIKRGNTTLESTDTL
Briefly: Antagonist activity at human P2Y14R expressed in HEK293 cells assessed as inhibition of UDPG-induced cAMP production preincubated for 0.5 hrs followed by UDPG stimulation by cAMP-glo analysis. The class given is functional, cell-based.
Conditions: not given
A general note: cAMP levels reflect the balance of adenylyl cyclase and phosphodiesterase activity.
As for `O=C(O)c1cc(-c2ccccc2C2CCNCC2)c2ccc(-c3ccc(C(F)(F)F)cc3)cc2c1`, the IC50 came out at 5210 nM.

Another test has as its target T2, P2Y purinoceptor 6 (Homo sapiens, UniProt Q15077). Put plainly: Antagonist activity at P2Y6R (unknown origin).
Conditions: not given
For the compound `O=S(=O)(O)c1cc(N=C=S)ccc1/C=C/c1ccc(N=C=S)cc1S(=O)(=O)O`, the IC50 came out at 5200 nM.

Another test has as its target T2, P2Y purinoceptor 6. Put plainly: Antagonist activity at human P2Y6R expressed in HEK293 cells assessed as inhibition of UDP-induced IP3 production preincubated for 0.5 hrs followed by UDP stimulation and measured after 12 hrs by ELISA analysis. It is filed as functional, cell-based.
Conditions: not given
With `CC(C)(C)n1nc(-c2nc3c(Cl)cccc3[nH]2)cc1-c1ccco1`, the IC50 is 93.5 nM.

For `Cc1ccc2cc(C3CC(c4ccco4)=NN3C(=O)CCC(=O)O)c(Cl)nc2c1` (stereo unspecified), the IC50 turned out to be 126 nM.

Consider `S=C=Nc1cccc(NC(=S)NCCCCNC(=S)Nc2cccc(N=C=S)c2)c1`, for which the IC50 was found to be 27.5 nM.

Regarding `Cc1cccc2oc(-c3cc(-c4ccco4)n(C(C)(C)C)n3)nc12`, the IC50 is 94.2 nM.

With `Cc1ccc2oc(-c3cc(-c4ccco4)n(C(C)(C)C)n3)nc2c1`, the IC50 amounted to 202 nM.

Take `O=C(O)CCC(=O)N1N=C(c2nc3cc(Cl)ccc3[nH]2)CC1c1ccco1` (stereo unspecified): the IC50 stood at 457 nM.

With `CC(C)(C)n1nc(-c2nc3cc(Br)ccc3[nH]2)cc1-c1ccco1`, the IC50 came to 45.7 nM.

On to `CC(C)(C)n1nc(-c2nc3cc(F)ccc3[nH]2)cc1-c1ccco1`, for which the IC50 was 64.1 nM.

For the compound `CC(C)(C)n1nc(-c2nc3ccccc3o2)cc1-c1ccco1`, the IC50 came to 30.8 nM.

`CC(C)(C)n1nc(-c2nc3ccccc3o2)cc1-c1ccccc1`: the half-inhibitory concentration (IC50) came out at 173 nM.

`CC(C)(C)n1nc(-c2nc3ccccc3[nH]2)cc1-c1ccccc1`: the IC50 is 49.2 nM.

On to `Cc1ccc2nc(-c3cc(-c4ccccc4)n(C(C)(C)C)n3)oc2c1`, for which the IC50 worked out at 42.5 nM.

In the case of `CC(C)(C)n1nc(-c2nc3ccccc3s2)cc1-c1ccccc1`, the IC50 came to 314 nM.

For the compound `CC(C)(C)n1nc(-c2nc3cc(C(F)(F)F)ccc3[nH]2)cc1-c1ccco1`, the IC50 amounted to 15.2 nM.

On to `Cc1ccc2nc(-c3cc(-c4ccco4)n(C(C)(C)C)n3)oc2c1`, for which the IC50 worked out at 72.9 nM.

For `Cc1ccc2oc(-c3cc(-c4ccc[nH]4)n(C(C)(C)C)n3)nc2c1`, the IC50 was 256 nM.

For the compound `Cc1ccc2[nH]c(-c3cc(-c4ccccc4)n(C(C)(C)C)n3)nc2c1`, the IC50 came to 77.8 nM.

Consider `CC(C)(C)n1nc(-c2nc3cc(OC(F)(F)F)ccc3[nH]2)cc1-c1ccco1`, for which the IC50 was determined as 128 nM.

In the case of `CC(C)(C)n1nc(-c2nc3ccccc3[nH]2)cc1-c1ccco1`, the IC50 came out at 159 nM.

`CC(C)n1nc(-c2nc3ccccc3s2)cc1-c1ccccc1`: the IC50 came out at 87.8 nM.

On to `CC(C)(C)n1nc(-c2nc3cc(Cl)ccc3[nH]2)cc1-c1ccccc1`, for which the IC50 is 216 nM.

Consider `CC(C)(C)n1nc(-c2nc3cc([N+](=O)[O-])ccc3[nH]2)cc1-c1ccco1`, for which the IC50 worked out at 12.6 nM.

The target of another test is T2, P2Y purinoceptor 6. Put plainly: Binding affinity to human recombinant P2Y6R expressed in HEK293 cells at 500 uM pretreated for 1 hrs followed by pulldown using streptavidin agarose resin by Western blot analysis. It is filed as cell-based. The settings on record: filed as antagonist. (Immunoblotting shows a protein as a band on a membrane.)
For the compound `CC(C)(C)n1nc(-c2nc3cc(C(=O)NCCOCCOCCOCCNC(=O)CCCC[C@@H]4SC[C@@H]5NC(=O)N[C@@H]54)ccc3[nH]2)cc1-c1ccco1`, the outcome was Active.

Another test deals with P2Y purinoceptor 12 (Homo sapiens, UniProt Q9H244). Briefly: Antagonist activity at human P2Y12R expressed in HEK293 cells assessed as inhibition of MeSADP-induced cAMP production preincubated for 0.5 hrs followed by MeSADP stimulation by cAMP-glo analysis. The class given is functional, cell-based.
Sequence of P2Y purinoceptor 12 (Q9H244 whole entry): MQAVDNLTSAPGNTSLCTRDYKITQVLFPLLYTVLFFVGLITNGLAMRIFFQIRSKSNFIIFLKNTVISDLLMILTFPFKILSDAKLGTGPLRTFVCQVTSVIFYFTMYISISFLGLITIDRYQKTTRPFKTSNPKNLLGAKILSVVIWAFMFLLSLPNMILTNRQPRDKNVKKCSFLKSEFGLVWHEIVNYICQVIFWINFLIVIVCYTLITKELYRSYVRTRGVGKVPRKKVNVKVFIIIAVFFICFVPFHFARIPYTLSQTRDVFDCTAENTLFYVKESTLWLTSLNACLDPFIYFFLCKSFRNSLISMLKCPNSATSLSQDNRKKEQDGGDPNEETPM
Conditions: not given
As for `CCCSc1nc(N[C@@H]2C[C@H]2c2ccc(F)c(F)c2)c2nnn([C@@H]3C[C@H](OCCO)[C@@H](O)[C@H]3O)c2n1` [TICAGRELOR], the IC50 was determined as 1400 nM.
